# Reference: US4357470A, “Cephalosporin compounds” (Taisho Pharmaceutical Co., Ltd., priority 1980, dated 1982)
# Where a name gives a salt, the structure may show the parent alone. Read-outs that look alike come from different tables or passages of the source.
# Assays:
# [1] = test system: Staphylococcus aureus FDA 209 P; experiment: Antibacterial activity, agar plate dilution method (MIC), S. aureus; type: cell-based; conditions: FDA209
# Experimental: (§1) Antibacterial activities of the compounds of the present invention were tested about various microorganisms using an agar plate dilution method. Commercial cefazolin sodium was used as a control. The test results for 7-[D-α-(4-hydroxy-pyrazino[2,3-f]quinoline-3-carboxamido)-α-phenylacetamido]-3-(1-carboxymethyl-tetrazole-5-yl)thiomethyl-Δ^3 -cephem-4-carboxylic acid disodium salt (TC-203) and 7-[D-Δ-(4-hydroxy-pyrazino[2,3-f]quinoline-3-carboxamido)-Δ-(4-hydroxyphenyl)acetamido]-3-(1-carboxymethyl-tetrazole-5-yl)thiomethyl-Δ^3 -cephem-4-carboxylic acid disodium salt (TC-403) are expressed by MIC value (Minimum Inhibitory Concentration, μg/ml) and shown in Table 1.
# Escherichia coli NIHJC-2 = experiment: Antibacterial activity, agar plate dilution method (MIC), E. coli; type: cell-based; conditions: NIHJC2
# Experimental: as §1
# [2] = test system: Klebsiella pneumoniae 3K-2; experiment: Antibacterial activity, agar plate dilution method (MIC), K. pneumoniae; type: cell-based; conditions: 3K2
# Experimental: as §1
# [3] = test system: Pseudomonas aeruginosa NC-5; experiment: Antibacterial activity, agar plate dilution method (MIC), P. aeruginosa; type: cell-based; conditions: NC5
# Experimental: as §1
# Proteus vulgaris IID 874 = experiment: Antibacterial activity, agar plate dilution method (MIC), P. vulgaris; type: cell-based; conditions: IID874
# Experimental: as §1
# in vivo = experiment: in vivo; design: species or system mice; conditions: mouse, im
# Experimental: The compounds of the present invention were administered to mice intramuscularly and change of blood levels with lapse of time was determined. Commercial cefazolin sodium was used as a control.
# [4] = Intraperitoneal acute toxicity in rats; type: in vivo; conditions: dose less than 5000 mg/kg of body weight
# Source text: The compounds of the present invention are of low toxicity.
# [5] = Escherichia coli NIHJC-2, agar plate dilution, read-out: MIC
Compound,MIC [1],MIC (Escherichia coli NIHJC-2; [5]),MIC [2],MIC [3],MIC (Proteus vulgaris IID 874),concentration at 0.25 h (in vivo),concentration at 0.5 h (in vivo),concentration at 1 h (in vivo),concentration at 2 h (in vivo),intraperitoneal acute toxicity [4],MIC (Escherichia coli NIHJC-2; Escherichia coli)
"O=C(O)Cn1nnnc1SCC1=C(C(=O)O)N2C(=O)[C@@H](NC(=O)[C@H](NC(=O)c3cnc4ccc5nccnc5c4c3O)c3ccccc3)[C@H]2SC1 [TC-203, 7-[D-α-(4-hydroxy-pyrazino[2,3-f]quinoline-3-carboxamido)-α-phenylacetamido]-3-(1-carboxymethyl-tetrazole-5-yl)thiomethyl-Δ^3-cephem-4-carboxylic acid disodium salt]",3.13 µg/mL,0.78 µg/mL,0.78 µg/mL,12.5 µg/mL,1.56 µg/mL,150 µg/mL,162 µg/mL,82 µg/mL,32 µg/mL,–,–
"O=C(O)Cn1nnnc1SCC1=C(C(=O)O)N2C(=O)[C@@H](NC(=O)[C@H](NC(=O)c3cnc4ccc5nccnc5c4c3O)c3ccc(O)cc3)[C@H]2SC1 [TC-403, 7-[D-Δ-(4-hydroxy-pyrazino[2,3-f]quinoline-3-carboxamido)-Δ-(4-hydroxyphenyl)acetamido]-3-(1-carboxymethyl-tetrazole-5-yl)thiomethyl-Δ^3-cephem-4-carboxylic acid disodium salt]",6.25 µg/mL,1.56 µg/mL,1.56 µg/mL,12.5 µg/mL,3.13 µg/mL,92 µg/mL,180 µg/mL,62 µg/mL,42 µg/mL,hardly shows any intraperitoneal acute toxicity in rats at a dose less than 5000 mg/kg of body weight,–
"Cc1nnc(SCC2=C(C(=O)O)N3C(=O)[C@@H](NC(=O)Cn4cnnn4)[C@H]3SC2)s1 [cefazolin sodium, reference compound]",< 0.1 µg/mL,–,> 100 µg/mL,> 100 µg/mL,> 100 µg/mL,62 µg/mL,42 µg/mL,5.5 µg/mL,–,–,1.56 µg/mL
